Laboratory results: US6444144B1, “Polyethoxylated ascorbic acid derivatives as a novel antioxidant and process for preparing thereof” (LG Chemical Ltd., priority 1998, dated 2002)
Like-named read-outs stand apart in the source and are kept apart here.

Columns and labels:
[1] = molecular target: Tyrosinase extracted from mushrooms; test: Inhibitory activity against tyrosinase; type: biochemical; settings: L-tyrosine substrate, DOPA cofactor, pH 6.8, 37° C., 10 minutes, absorbance at 475 nm
Procedure: Tyrosinase extracted from mushrooms was purchases from Sigma Co. First, L-tyrosine as a substrate was dissolved in a 0.05M phosphate buffer solution (pH 6.8) to have a concentration of 1.5 mM. 0.01 ml of this solution was added to a 0.3 ml spectrophotometer cuvette, followed by 0.01 ml of 0.06 mM dihydroxyphenylalamine (DOPA) as a cofactor. To this solution were added compounds of Formulas (II) and (III) and the phosphate buffer solution to have the total volume of 0.1 ml. […] Meanwhile, a blank was prepared by adding only 0.1 ml of the phosphate buffer solution. The reaction was performed at 37° C. for 10 minutes. The absorbance was measured at 475 nm with a spectrophotometer (Beckman DU-7500) to determine the inhibitory rate against tyrosinase. IC50 value was determined as the concentration of the inhibitor whose inhibitory rate against the enzyme amounts to 50%. Inhibitory Rate(%)=[(A−B)/A]×100 wherein A is the absorbance at 475 nm in a solution containing no inhibitor, and B is the absorbance at 475 nm in a solution containing an inhibitor.

[2] = Radical scavenging effect (DPPH method); settings: for IC50: DPPH, absorption at 517 nm; for radical scavenging effect (in words): comment on Table 2, DPPH, 1 hour and 24 hours
Procedure: Measurement was made using the 1,1-diphenyl-2-picrylhydrazyl (DPPH) method [Blois, M. S. Nature, 1958, 181, 1190]. DPPH is a relatively stable radical with the maximum absorption at 517 nm. The absorption at this wavelength disappears upon removal of the radical. DPPH was purchased from Sigma Co. and dissolved in methanol to make the concentration of 0.5 mM.
First, 100 μl of each solution (10^−l to 10^−6 M) of the individual compounds prepared in examples 1 to 4 were placed in each well of a 96-well plate. After adding 100 μl of DPPH solution and standing the reaction mixture at the room temperature, the absorption at 517 nm was measured for each well using a micro plate reader (BioTeck EL-340). A blank solution was prepared to contain 100 μl of methanol instead of the above compounds. The concentration of the individual compounds was denoted by IC50 at the time when the absorption of the test sample becomes a half of that of the blank solution. The absorption was measured at 1 hour and at 24 hours after treatment.

[3] = female, naked mouse, 24 h, 5 % (w/v), pH 7.4
Procedure: More specifically, a dorsal skin of 8-weeks aged female mouse (naked mouse) was cut off and then 5% (w/v) solution of the test sample was applied in an amount of 50 μl to the skin having a size of 1.7 cm^2. Using the apparatus for measuring transdermal absorption test (Franz cell), after 24 hours, the absorbed material was extracted from 7 ml of the receptor solution [50 mM PBS buffer solution (pH=7.4) containing 2% Vol PO20 polyethylene oleyl ether (HLB=16)] and then quantitatively analyzed by HPLC.

[4] = 24 hours after treatment, read-out: Radical Scavenging Effect IC50 After 24 hrs.
[5] = read-out: Radical Scavenging Effect IC50 After 1 hour, 1 hour after treatment

Row | Molecule | IC50 [1] [mM] | IC50 [2, 4] [mM] | IC50 [2, 5] [mM] | Absorption Rate (%) [3] [%] | Total Transdermal Absorption Amount [3] [mg] | radical scavenging effect (in words) [2]
1 | 3-O-PEG350-Ascorbic Acid | 9.8 | 5.9 | 78.7 | – | – | an increase in the radical scavenging effect with an elapse of time
2 | 3-O-PEG550-ascorbic acid | 7.06 | – | – | – | – | an increase in the radical scavenging effect with an elapse of time
3 | CCOC1=C(O)C(=O)O[C@@H]1[C@@H](O)CO [3-O-Ethyl-ascorbic acid, reference compound] | 9.8 | 9.8 | 9.8 | – | – | –

The next lines start with results.

Row | IC50 [1] [mM] | IC50 [2, 4] [mM] | IC50 [2, 5] [mM] | Absorption Rate (%) [3] [%] | Total Transdermal Absorption Amount [3] [mg] | Molecule | radical scavenging effect (in words) [2]
4 | 1.97 | 5.9 | 7.9 | – | – | 2-O-PEG350-Ascorbic Acid | potent radical scavenging effect in a short time
5 | 7.06 | 4.2 | 7.9 | – | – | 2-O-PEG550-Ascorbic Acid | potent radical scavenging effect in a short time
6 | 0.47 | 3.4 | 3.4 | 1.2 | 0.03 | O=C1O[C@H]([C@@H](O)CO)C(O)=C1O [Ascorbic acid] | –
